From patent EP1642577A1, “Derivatives of aryl (or heteroaryl) azolylcarbinols for the treatment of central neuropathic pain” (Laboratorios Dr. Esteve S.A., priority 2004, dated 2006)

Tested on: Rats operated on lnfraorbital nerve
Test: Rats operated on infraorbital nerve (ligature): response/nociceptive threshold measured as aversive reactions
Format: in vivo
Source text: Figures 1 and 2: Refering to example 7 they show the high efficacy of Cizolirtine in a model for the central neuropathic pain, the ligature of the infraorbital nerve.
Rats operated on lnfraorbital nerve
Rats were operated placing a ligature around the infraorbital nerve on one side. Following this operation the response threshold in (g) is reduced considerably if comparing the ipsilateral and contralateral side to the response pre ligature (Fig. 2) measured as aversive reactions. […] Saline produced no modification of the nociceptive threshold.

SMILES: CN(C)CCOC(c1ccccc1)c1ccnn1C (racemic) [Cizolirtine, (±)-5-{α-[2-(dimethylamino)ethoxy]benzyl}-1-methyl-1H-pirazole]
- nociceptive threshold (%) (i.p., 80 mg/kg, ipsilateral side, rats with ligature around the infraorbital nerve, Fig. 1): strong inducement of the nociceptive threshold
- efficacy in a model for the central neuropathic pain, the ligature of the infraorbital nerve (legend of Figures 1 and 2, referring to example 7): high efficacy
